Reference: article PMC12119672, “Development and evaluation of [^11C]DPA-813 and [^18F]DPA-814: novel TSPO PET tracers insensitive to human single nucleotide polymorphism rs6971” (European Journal of Nuclear Medicine and Molecular Imaging, 2025)
Several values for one entry are separate records, joined by “and”; a condition that tells them apart may be missing. Equal values may be shown once. Marks after values point to notes of the source that are not given here. Blank lines part the entries; values can stand above or below the compound they belong to.

Key:
[1] = Ex vivo metabolite analysis (plasma and brain) in wild-type rats; parameters: species or system rat; conditions: i.v.
Procedure: Metabolite analysis was conducted following the method outlined in a previous study. Wistar/RccHan (WIST) rats (Inotiv, the Netherlands) received intravenous injections of either [^11C]DPA-813 (30–50 MBq) or [^18F]DPA-814 (20–30 MBq). Rats were euthanized at 5, 15, and 45 min post-injection (n = 4 per time point). Plasma was separated from blood then processed through a C18 Sep-Pak (Waters, Milford, MA, USA). After washing with 3 mL of water to isolate the polar fraction, the non-polar fraction was eluted using 2 mL of methanol and 1 mL of water and subsequently analyzed by HPLC. The brain tissue was collected and homogenized in a mixture of MeCN and H2O (50/50, 4 mL) before centrifugation (5 min, 4000 rpm, 20 °C, Hettich Universal 32). The obtained supernatant was separated from the precipitate and analyzed via HPLC. Analytical HPLC was performed using a Dionex UltiMate 3000 HPLC system equipped with Chromeleon software (version 6.8), utilizing a Gemini C18 5-µm (10 × 250 mm) column (Phenomenex, Torrance, CA, USA). All fractions were assessed for radioactivity using a Wizard Gamma counter 1470 or 2480 (Wallac/PerkinElmer, Waltham, MA, USA).

[2] = target: T1, rat TSPO (Rattus norvegicus, UniProt P16257); assay: Competitive binding to rat TSPO vs [3H]PK 11195 (Eurofins assay #226700, rat heart membranes); conditions: vs DPA-713 / DPA-714
T1 construct: Heart of male Wistar derived rats weighing 175 ± 25 g are used to prepare peripheral benzodiazepine membrane receptors [TSPO]; tissue Eurofins Panlabs Discovery Services assay #226700; host or cells: rat heart (male Wistar derived)
Procedure: (§1) Binding affinities (Ki) to wild-type (WT) and A147T human TSPO were assessed using a previously published method. HEK-293T cells were stably transfected with WT and A147T TSPO. Membranes were isolated from each cell line using an Ultra-Turrax hand-held homogeniser. These cells have been previously validated as an in vitro model for low- and high-affinity TSPO binding. […] Non-specific binding was determined using a saturating concentration (1 µM) of non-tritiated PK 11195. This non-specific binding contributed less than 10% of total binding. Reactions were halted by filtering through a 96-well glass-fibre filter plate (Millipore), followed by eight washes with ice-cold 50 mM Tris HCl. Microscint 0 was added to the plate and resultant radioactivity-related photons were collected by a Microbeta 2450 (PerkinElmer). Ki values were fit to a competition binding curve fit on non-specific binding-corrected data using GraphPad Prism 10.0 (GraphPad). Results are presented as mean ± standard error of the mean (SEM) from at least three independent experiments. Binding affinities (Ki) to rat TSPO were measured in duplicate by Eurofins Panlabs Discovery Services (assay #226700) (Supplementary Fig. 12). Single-dose (10 µM) off-target in vitro screening was performed in duplicate by Eurofins Panlabs Discovery Services (Supplementary Table 5).
Supplementary Figure 12 Dose-response curves and binding affinities of DPA-813 and DPA-814 showing competitive binding to rat TSPO vs [^3H]PK 11195. Method from Eurofins: Heart of male Wistar derived rats weighing 175 ± 25 g are used to prepare peripheral benzodiazepine membrane receptors [TSPO] in modified Tris-HCl buffer pH 7.5. A 0.25 mg aliquot is incubated with 0.3 nM [^3H]PK 11195 for 15 minutes at 25 °C. Non-specific binding is estimated in the presence of 100 μM Dipyridamole. Membranes are filtered and washed, the filters are then counted to determine [^3H]PK 11195 specifically bound.

[3] = Ex vivo biodistribution in wild-type rats; parameters: species or system rat; conditions: i.v.
Procedure: Wistar/RccHan (WIST) rats from Inotiv, the Netherlands, received intravenous injections via a tail vein catheter of either [^11C]DPA-813 (30–50 MBq) or [^18F]DPA-814 (20–30 MBq). The rats were euthanized at 5, 15, and 45 min post-injection (n = 4 per time point). Blood, heart, lungs, liver, spleen, kidney, urine, bone, brain, duodenum, small intestine, skin, and muscle were collected, weighed, and their radioactivity measured using a Wizard Gamma counter 1470 or 2480 (Wallac/PerkinElmer, Waltham, MA, USA). Entire organs were collected, except for larger organs like the liver and lungs, where only a portion was dissected. The radioactivity uptake in each organ was expressed as the percentage of the injected dose per gram of tissue (%ID/g).

[4] = tested on: EAE rat model (spinal cord); assay: PET imaging in the EAE rat model; format: in vivo; conditions: dynamic PET 60 min, peak of clinical symptoms
[5] = tested on: TSPO in human MS tissues; assay: Autoradiography on genotyped human MS brain tissue (HAB, MAB, LAB); format: binding
Text: Brain tissues from MS patients (n = 7) were used in this study and were obtained from the MS centre of the Amsterdam University Medical Centers (AUMC). For some patient material, several brain tissues were available. The MS centre received permission from the Ethical Committee of the AUMC (Amsterdam, The Netherlands) to perform autopsies for tissue use and access to medical records for research purposes. All patients and controls, or their next of kin, had given informed consent for autopsy and use of brain tissue for research purposes.
TSPO rs6971 SNP was determined with a Taqman assay (C_2512465_20, ThermoFisher Scientific, The Netherlands). DNA was isolated from human MS brain tissue cryosections using a QIAmp mini kit from Qiagen according to the manufacturer’s recommendation. The concentration of the isolated DNA was determined on a nanodrop (NanoVue Plus, Biochrom). DNA concentration ranged from 45 to 246 µg/mL. QPCR was performed on a QuantStudio (Applied Biosystems, The Netherlands). Synthetic DNA (300 bp) for the two TSPO SNP alleles, rs6971-A, and rs6971-G, was used as a control for the Taqman assay. DNA samples were diluted 1/100 in milliQ water, and 4.5 µL was used for the QPCR. Control DNA sequences were reconstituted in 10 ng/mL in milliQ water. The final QPCR solution contained 5 µL TaqPath proAmp master mix (ThermoFisher Scientific, The Netherlands), 0.5 µL Taqman SNP, and 4.5 µL DNA. Results of the Taqman assay are summarised in Supplementary Tables 4 and Supplementary Fig. 2.
Human MS tissue cryosections (20 μm) were mounted on glass slides, air-dried, and stored at − 80 °C until needed. Prior to use, the sections were washed three times in PBS for 5 min each, then dried under an airflow. […] For blocking experiments, tissue sections were co-incubated with PK 11195 (10 µM) and the tracer. After incubation, sections were washed for 90 s three times each in ice-cold PBS and then dipped in deionized water twice. The sections were air-dried and exposed to a phosphor screen BAS-IP SR 2025 (General Electric, Eindhoven, The Netherlands). Phosphor screens were subsequently imaged using a Typhoon FLA 7000 imager (General Electric, Eindhoven, The Netherlands), and signal intensity was quantified using ImageLab software (BioRad, Lunteren, The Netherlands).

[6] = distribution coefficient; cited from earlier work
[7] = target: T2, WT human TSPO (Homo sapiens, UniProt P30536); assay: Competition radioligand binding vs [3H]PK 11195, membranes of transfected HEK-293T cells (WT TSPO); conditions: vs [3H]PK 11195 (10 nM), HEK-293T membranes, mean ± SEM; read-out: Ki WT hTSPO
T2 construct: expressed in transfected cells
Procedure: as §1
(§2) In vitro binding affinities (Ki) for human TSPO were initially assessed using a competition radioligand assay against [^3H]PK 11195 in our well-characterised assay using membranes isolated from transfected HEK-293T cells overexpressing either WT or A147T TSPO [32]. This structure-activity relationship study will be reported in a separate publication. […] Data for DPA-713 and DPA-714 are included for comparison.

[8] = target: T3, A147T human TSPO (Homo sapiens, UniProt P30536); assay: Competition radioligand binding vs [3H]PK 11195, membranes of transfected HEK-293T cells (A147T TSPO); conditions: vs [3H]PK 11195 (10 nM), HEK-293T membranes, mean ± SEM; read-out: Ki A147T hTSPO
T3 construct: expressed in transfected cells
Procedure: as §1, §2

T2 sequence (P30536 whole entry T147A): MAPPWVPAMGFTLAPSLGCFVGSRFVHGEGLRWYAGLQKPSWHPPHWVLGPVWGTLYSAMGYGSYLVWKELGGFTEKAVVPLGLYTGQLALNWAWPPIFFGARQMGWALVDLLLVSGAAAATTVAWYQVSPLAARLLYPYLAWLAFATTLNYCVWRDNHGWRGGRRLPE
T3 sequence (P30536 whole entry, stated change not applied): as the sequence (P30536 whole entry T147A) above, with A147T counted along it

- Brain, Parent (intact tracer) ([1]; 5 min post-injection): 99.5 ± 0.2%
- Plasma, Parent (Intact tracer) ([1]; 5 min post-injection): 88.1 ± 8.5%
- Brain, Parent (intact tracer) ([1]; 15 min post-injection): 99.5 ± 0.3%
- Plasma, Parent (Intact tracer) ([1]; 15 min post-injection): 89.4 ± 0.9%
- Brain, Parent (intact tracer) ([1]; 45 min post-injection): 99.3 ± 0.3%
- Plasma, Parent (Intact tracer) ([1]; 45 min post-injection): 79.1 ± 6.6% and 79%
- higher affinity to rat TSPO compared to the parent compound [2]: 35 fold
- Biodistribution, Blood ([3]; 5 min post-injection): 0.41 ± 0.2 %ID/g
- Biodistribution, Bone ([3]; 5 min post-injection): 0.27±0.1 %ID/g
- Biodistribution, Brain ([3]; 5 min post-injection): 0.25 ± 0.03 %ID/g
- Biodistribution, Duodenum ([3]; 5 min post-injection): 1.44±0.1 %ID/g
- Biodistribution, Heart ([3]; 5 min post-injection): 3.31±0.3 %ID/g
- Biodistribution, Kidney ([3]; 5 min post-injection): 3.81±0.5 %ID/g
- Biodistribution, Liver ([3]; 5 min post-injection): 1.82±0.5 %ID/g
- Biodistribution, Lungs ([3]; 5 min post-injection): 21.91±1. %ID/g
- Biodistribution, Skin ([3]; 5 min post-injection): 0.09±0.0 %ID/g
- Biodistribution, Small intestine ([3]; 5 min post-injection): 0.92±0.1 %ID/g
- Biodistribution, Tail ([3]; 5 min post-injection): 6.89±9.8 %ID/g
- Biodistribution, Urine ([3]; 5 min post-injection): 0.01±0.0 %ID/g
- Biodistribution, muscle ([3]; 5 min post-injection): 0.05±0.0 %ID/g
- Biodistribution, spleen ([3]; 5 min post-injection): 3.00±0.6 %ID/g
- Biodistribution, Blood ([3]; 15 min post-injection): 0.31±0.1 %ID/g
- Biodistribution, Bone ([3]; 15 min post-injection): 0.29±0.1 %ID/g
- Biodistribution, Brain ([3]; 15 min post-injection): 0.28±0.0 %ID/g
- Biodistribution, Duodenum ([3]; 15 min post-injection): 1.71±0.2 %ID/g
- Biodistribution, Heart ([3]; 15 min post-injection): 4.39±0.2 %ID/g
- Biodistribution, Kidney ([3]; 15 min post-injection): 4.59±0.6 %ID/g
- Biodistribution, Liver ([3]; 15 min post-injection): 2.56 ± 0.2 %ID/g
- Biodistribution, Lungs ([3]; 15 min post-injection): 24.43±2. %ID/g
- Biodistribution, Skin ([3]; 15 min post-injection): 0.12±0.1 %ID/g
- Biodistribution, Small intestine ([3]; 15 min post-injection): 1.26±0.1 %ID/g
- Biodistribution, Tail ([3]; 15 min post-injection): 0.70±0.2 %ID/g
- Biodistribution, Urine ([3]; 15 min post-injection): 0.01±0.0 %ID/g
- Biodistribution, muscle ([3]; 15 min post-injection): 0.07±0.0 %ID/g
- Biodistribution, spleen ([3]; 15 min post-injection): 4.85±0.2 %ID/g
- Biodistribution, Blood ([3]; 45 min post-injection): 0.15 ± 0.01 %ID/g
- Biodistribution, Bone ([3]; 45 min post-injection): 0.22±0.0 %ID/g
- Biodistribution, Brain ([3]; 45 min post-injection): 0.20 ± 0.02 %ID/g
- Biodistribution, Duodenum ([3]; 45 min post-injection): 1.43±0.1 %ID/g
- Biodistribution, Heart ([3]; 45 min post-injection): 4.05±0.3 %ID/g
- Biodistribution, Kidney ([3]; 45 min post-injection): 4.10±0.2 %ID/g
- Biodistribution, Liver ([3]; 45 min post-injection): 1.97±0.4 %ID/g
- Biodistribution, Lungs ([3]; 45 min post-injection): 18.05±3. %ID/g
- Biodistribution, Skin ([3]; 45 min post-injection): 0.12±0.0 %ID/g
- Biodistribution, Small intestine ([3]; 45 min post-injection): 1.23±0.2 %ID/g
- Biodistribution, Tail ([3]; 45 min post-injection): 1.30±0.5 %ID/g
- Biodistribution, Urine ([3]; 45 min post-injection): 0.08±0.1 %ID/g
- Biodistribution, muscle ([3]; 45 min post-injection): 0.08±0.0 %ID/g
- Biodistribution, spleen ([3]; 45 min post-injection): 5.45±1.6 %ID/g
- ratio of the binding quantifications [18F]DPA-814/[18F]DPA-714 ([5]; HAB human MS tissue): 0.9 ± 0.1
- ratio of the binding quantifications [18F]DPA-814/[18F]DPA-714 ([5]; LAB human MS tissue): 12.3 and 12
- ratio of the binding quantifications [18F]DPA-814/[18F]DPA-714 ([5]; MAB human MS tissue): 1.5 ± 0.2
Structure (SMILES): Cc1cc(C)n2nc(-c3ccc(OCC[18F])cc3)c(CC(=O)N(C)c3ccccc3)c2n1 [[^18F]DPA-814]
- higher uptake (AUC of time activity curve) in the spinal cord of EAE rats compared to CFA control [4]: 21%

Structure (SMILES): CCN(CC)C(=O)Cc1c(-c2ccc(OC)cc2)nn2c(C)cc(C)nc12 [DPA-713]
- logD7.4 [6]: 2.4 ^b

- Ki [7]: 20.9 ± 5 nM
- Ki [8]: 260 ± 93.6 nM
Structure (SMILES): CCN(CC)C(=O)Cc1c(-c2ccc(OCCF)cc2)nn2c(C)cc(C)nc12 [DPA-714, reference compound]
- logD7.4 [6]: 2.4 ^b
